The values below are quoted from earlier work in US20140271927A1, “COMPOSITION AND METHOD FOR TREATING NEUROPATHY” (priority 2013, published 2014).

For the data set the following is noted: published studies reviewed.

Turning to `[Cr]` [chromium], the “lowering the HbgAlc” value is listed as 1-2%.
